Reference: publication PMC4373589 (Journal of medicinal chemistry, 2013)

How the values were obtained:
[1] = system: morphine antinociception; assay: Warm-water tail flick assay, antagonism of morphine antinociception; format: in vivo; conditions: antagonizing morphine (10 mg/kg) antinociception; s.c.; six mice
[2] = system: morphine dependent mice; assay: Opioid withdrawal assay in morphine-pelleted mice; format: in vivo; conditions: for Precipitated withdrawal symptoms, overall comparison: morphine-pelleted mice, s.c.
[3] = system: KOR; conditions: cited from earlier work
[4] = target: T1, delta opioid receptor (DOR) (Mus musculus, UniProt P32300); assay: DOR [35S]-GTPγS binding assay
T1 sequence (P32300 whole entry): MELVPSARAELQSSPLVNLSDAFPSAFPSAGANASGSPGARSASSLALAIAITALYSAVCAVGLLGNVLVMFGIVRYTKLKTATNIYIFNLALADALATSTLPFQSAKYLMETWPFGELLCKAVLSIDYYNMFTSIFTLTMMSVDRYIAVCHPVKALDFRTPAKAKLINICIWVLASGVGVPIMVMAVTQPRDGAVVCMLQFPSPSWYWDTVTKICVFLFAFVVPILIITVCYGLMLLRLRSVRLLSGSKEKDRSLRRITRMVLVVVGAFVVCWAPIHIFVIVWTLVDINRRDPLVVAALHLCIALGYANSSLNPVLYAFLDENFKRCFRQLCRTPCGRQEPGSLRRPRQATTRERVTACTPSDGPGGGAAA

[5] = target: T2, kappa opioid receptor (KOR) (Mus musculus, UniProt P33534); assay: KOR [35S]-GTPγS binding assay
T2 sequence (P33534 whole entry): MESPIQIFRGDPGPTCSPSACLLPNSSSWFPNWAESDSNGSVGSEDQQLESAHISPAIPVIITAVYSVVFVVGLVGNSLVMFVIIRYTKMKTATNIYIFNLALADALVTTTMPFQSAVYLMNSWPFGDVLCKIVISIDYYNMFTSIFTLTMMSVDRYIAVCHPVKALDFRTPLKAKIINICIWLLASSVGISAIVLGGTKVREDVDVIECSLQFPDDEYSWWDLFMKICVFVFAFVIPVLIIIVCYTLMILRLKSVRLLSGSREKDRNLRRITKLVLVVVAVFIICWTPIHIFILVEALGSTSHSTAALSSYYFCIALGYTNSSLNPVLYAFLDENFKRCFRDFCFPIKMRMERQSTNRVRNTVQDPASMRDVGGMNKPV

[6] = target: mu opioid receptor (MOR) (Mus musculus, UniProt P42866); assay: MOR competitive radioligand binding; design: species or system mice
Chain of mu opioid receptor (MOR) (P42866 whole entry): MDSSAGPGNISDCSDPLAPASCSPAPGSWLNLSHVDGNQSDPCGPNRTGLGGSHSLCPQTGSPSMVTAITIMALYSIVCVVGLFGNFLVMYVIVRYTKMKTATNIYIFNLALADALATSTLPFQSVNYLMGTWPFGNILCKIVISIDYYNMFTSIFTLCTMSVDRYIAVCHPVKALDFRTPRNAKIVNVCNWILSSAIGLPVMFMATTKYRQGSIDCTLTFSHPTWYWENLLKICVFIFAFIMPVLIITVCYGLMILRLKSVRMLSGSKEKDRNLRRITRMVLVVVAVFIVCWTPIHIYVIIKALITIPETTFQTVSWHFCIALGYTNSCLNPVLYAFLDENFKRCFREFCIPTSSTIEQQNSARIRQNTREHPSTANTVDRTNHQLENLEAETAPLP

[7] = target: T2, kappa opioid receptor (KOR); assay: biochemical; format: binding, mice
[8] = system: antinociception; assay: Warm-water tail flick assay, acute agonist effect; conditions: up to 30 mg/kg dose; s.c.
[9] = target: T1, delta opioid receptor (DOR); assay: DOR competitive radioligand binding; design: species or system mice

Row | SMILES | AD50 values (mg/kg (95% CL)) [1] | Precipitated withdrawal symptoms, overall comparison [2] | Emax (KOR partial agonist) [3] | EC50 [4] | EC50 [5] | Ki [6] | Ki [7] | Agonist effect in tail flick assay [8] | Wet dog shakes at 3 mg/kg ([2]; 3 mg/kg s.c.) | Wet dog shakes at 10 mg/kg ([2]; 10 mg/kg s.c., same level at 30 mg/kg) | Wet dog shakes at high doses ([2]; 10 and 30 mg/kg s.c., compared with 1 mg/kg naloxone) | Escape jumps, effect of dose ([2]; increasing dose up to 30 mg/kg s.c.) | Ki [9]
1 | C=CCN1CC[C@]23c4c5ccc(O)c4O[C@H]2C(=O)CC[C@@]3(O)[C@H]1C5 [Naloxone, naloxone, reference compound] | 0.05 (0.03-0.09) mg/kg | even more significant syndrome |  |  |  |  |  |  |  |  |  |  | 
2 | Oc1cccc2c1O[C@H]1CCC[C@H]3CN(CC4CC4)CC[C@@]231 [LTC-274, (-)-3-cyclopropylmethyl-2,3,4,4α,5,6,7,7α-octahydro-1H-benzofuro[3,2-e]isoquinolin-9-ol] |  |  | 23% |  |  |  |  |  |  |  |  |  | 
3 | O=C(N[C@@]12CCC(=O)[C@@H]3Oc4c(O)ccc5c4[C@@]31CCN(CC1CC1)[C@@H]2C5)c1ccccn1 [Compound 10, 17-cyclopropylmethyl-4,5α-epoxy-3-hydroxy-14β-N-[(2’-pyridyl)carboxamido]morphinan-6-one] |  | less severe withdrawal symptoms than naloxone at high doses |  | 19.7 ± 7.4 nM | 1.74 ± 0.5 nM | 1.51 ± 0.34 nM | 0.36 ± 0.01 nM | None of the compounds produced any significant agonist effect | minimal number of wet dog shakes | dramatic increase | still lower than that of 1 mg/kg naloxone | clear decrease of escape jumps as its dose increased (not significantly though) | 94.5 ± 6.5 nM
